Experimental data: ChEMBL document CHEMBL3045111, “Synthesis and herbicidal activities of novel 3-(substituted benzyloxy or phenoxy)-6-methyl-4-(3-trifluoromethylphenyl)pyridazine derivatives” (2012)
The source made the active and inactive calls. No cut-off for these calls is given here.

Columns and labels:
Echinochloa crus-galli [1] = assay: Pre-emergence herbicidal activity against Echinochloa crus-galli (barnyard grass) under greenhouse condition at 750 g /ha measured after 24 days by spray method; assay type: functional; settings: 576 h, read-out: GI
[2] = system: Brassica rapa subsp. oleifera; assay: Post-emergence herbicidal activity against one-leaf stage Brassica rapa subsp. oleifera under greenhouse condition assessed as complete bleaching of leaves at 75 g /ha measured after 24 days by spray method; assay type: functional, organism-based
[3] = system: Brassica rapa subsp. oleifera; assay: Post-emergence herbicidal activity against one-leaf stage Brassica rapa subsp. oleifera under greenhouse condition assessed as complete bleaching of leaves at 150 g /ha measured after 24 days by spray method; assay type: functional, organism-based
[4] = system: Brassica rapa subsp. oleifera; assay: Post-emergence herbicidal activity against one-leaf stage Brassica rapa subsp. oleifera under greenhouse condition at 600 g /ha measured after 24 days by spray method; assay type: functional; settings: 576 h, read-out: GI
Amaranthus retroflexus [5] = assay: Post-emergence herbicidal activity against one-leaf stage Amaranthus retroflexus under greenhouse condition at 600 g /ha measured after 24 days by spray method; assay type: functional; settings: 576 h, read-out: GI
Echinochloa crus-galli [6] = assay: Post-emergence herbicidal activity against one-leaf stage of Echinochloa crus-galli (barnyard grass) under greenhouse condition at 750 g /ha measured after 24 days by spray method; assay type: functional; settings: 576 h, read-out: GI
Spirodela polyrhiza [7] = assay: Bleaching herbicidal activity in Spirodela polyrhiza fronds cultured in compound-containing in medium assessed as chlorophyll inhibition at 1 ug/ml after 7 days; assay type: functional; settings: 168 h
Digitaria [8] = assay: Pre-emergence herbicidal activity against Digitaria adscendens under greenhouse condition at 750 g /ha measured after 24 days by spray method; assay type: functional; settings: in Digitaria adscendens, 576 h, read-out: GI
Amaranthus retroflexus [9] = assay: Post-emergence herbicidal activity against one-leaf stage Amaranthus retroflexus under greenhouse condition assessed as complete bleaching of leaves at 150 g /ha measured after 24 days by spray method; assay type: functional, organism-based
[10] = system: Brassica rapa subsp. oleifera; assay: Pre-emergence herbicidal activity against Brassica rapa subsp. oleifera under greenhouse condition at 750 g /ha measured after 24 days by spray method; assay type: functional; settings: 576 h, read-out: GI
[11] = system: Brassica rapa subsp. oleifera; assay: Post-emergence herbicidal activity against one-leaf stage Brassica rapa subsp. oleifera under greenhouse condition at 750 g /ha measured after 24 days by spray method; assay type: functional; settings: 576 h, read-out: GI
Amaranthus retroflexus [12] = assay: Post-emergence herbicidal activity against one-leaf stage Amaranthus retroflexus under greenhouse condition assessed as complete bleaching of leaves at 600 g /ha measured after 24 days by spray method; assay type: functional, organism-based
Amaranthus retroflexus [13] = assay: Post-emergence herbicidal activity against one-leaf stage of Amaranthus retroflexus under greenhouse condition at 750 g /ha measured after 24 days by spray method; assay type: functional; settings: 576 h, read-out: GI
Digitaria [14] = assay: Post-emergence herbicidal activity against one-leaf stage of Digitaria adscendens under greenhouse condition at 750 g /ha measured after 24 days by spray method; assay type: functional; settings: in Digitaria adscendens, 576 h, read-out: GI
[15] = system: Brassica rapa subsp. oleifera; assay: Post-emergence herbicidal activity against one-leaf stage Brassica rapa subsp. oleifera under greenhouse condition at 75 g /ha measured after 24 days by spray method; assay type: functional; settings: 576 h, read-out: GI
[16] = system: Brassica rapa subsp. oleifera; assay: Post-emergence herbicidal activity against one-leaf stage Brassica rapa subsp. oleifera under greenhouse condition at 150 g /ha measured after 24 days by spray method; assay type: functional; settings: 576 h, read-out: GI
[17] = system: Brassica rapa subsp. oleifera; assay: Post-emergence herbicidal activity against one-leaf stage Brassica rapa subsp. oleifera under greenhouse condition at 300 g /ha measured after 24 days by spray method; assay type: functional; settings: 576 h, read-out: GI
Amaranthus retroflexus [18] = assay: Post-emergence herbicidal activity against one-leaf stage Amaranthus retroflexus under greenhouse condition assessed as complete bleaching of leaves at 75 g /ha measured after 24 days by spray method; assay type: functional, organism-based
Spirodela polyrhiza [19] = assay: Bleaching herbicidal activity in Spirodela polyrhiza fronds cultured in compound-containing in medium assessed as chlorophyll inhibition at 10 ug/ml after 7 days; assay type: functional; settings: 168 h
[20] = system: Brassica rapa subsp. oleifera; assay: Post-emergence herbicidal activity against one-leaf stage Brassica rapa subsp. oleifera under greenhouse condition assessed as complete bleaching of leaves at 300 g /ha measured after 24 days by spray method; assay type: functional, organism-based
Amaranthus retroflexus [21] = assay: Post-emergence herbicidal activity against one-leaf stage Amaranthus retroflexus under greenhouse condition assessed as complete bleaching of leaves at 300 g /ha measured after 24 days by spray method; assay type: functional, organism-based
Amaranthus retroflexus [22] = assay: Post-emergence herbicidal activity against one-leaf stage Amaranthus retroflexus under greenhouse condition at 150 g /ha measured after 24 days by spray method; assay type: functional; settings: 576 h, read-out: GI
[23] = system: Brassica rapa subsp. oleifera; assay: Post-emergence herbicidal activity against one-leaf stage Brassica rapa subsp. oleifera under greenhouse condition assessed as complete bleaching of leaves at 600 g /ha measured after 24 days by spray method; assay type: functional, organism-based
Amaranthus retroflexus [24] = assay: Post-emergence herbicidal activity against one-leaf stage Amaranthus retroflexus under greenhouse condition at 75 g /ha measured after 24 days by spray method; assay type: functional; settings: 576 h, read-out: GI
Amaranthus retroflexus [25] = assay: Pre-emergence herbicidal activity against Amaranthus retroflexus under greenhouse condition at 750 g /ha measured after 24 days by spray method; assay type: functional; settings: 576 h, read-out: GI
Amaranthus retroflexus [26] = assay: Post-emergence herbicidal activity against one-leaf stage Amaranthus retroflexus under greenhouse condition at 300 g /ha measured after 24 days by spray method; assay type: functional; settings: 576 h, read-out: GI

Structure (SMILES) | inhibition of growth at 750 g/ha (Echinochloa crus-galli [1]) [%] | Activity [2] | Activity [3] | inhibition of growth at 600 g/ha [4] [%] | inhibition of growth at 600 g/ha (Amaranthus retroflexus [5]) [%] | inhibition of growth at 750 g/ha (Echinochloa crus-galli [6]) [%] | inhibition at 1 µg/mL (Spirodela polyrhiza [7]) [%] | inhibition of growth at 750 g/ha (Digitaria [8]) [%] | inhibition of growth at 750 g/ha [10] [%] | inhibition of growth at 750 g/ha [11] [%] | Activity (Amaranthus retroflexus [12]) | inhibition of growth at 750 g/ha (Amaranthus retroflexus [13]) [%] | inhibition of growth at 750 g/ha (Digitaria [14]) [%] | inhibition of growth at 75 g/ha [15] [%] | inhibition of growth at 150 g/ha [16] [%] | inhibition of growth at 300 g/ha [17] [%] | inhibition at 10 µg/mL (Spirodela polyrhiza [19]) [%] | Activity [20] | Activity (Amaranthus retroflexus [21]) | inhibition of growth at 150 g/ha (Amaranthus retroflexus [22]) [%] | also measured
Cc1cc(-c2cccc(C(F)(F)F)c2)c(Oc2ccc(Cl)cc2)nn1 | 85 | Active | Active | 80 | 90 | 78 | 72 | 97 | 97 | 98 | Active | 94 | 79 | 65 | 71 | 76 | 99 | Active | Active | 84 | Activity (Amaranthus retroflexus [9]): Active; Activity (Amaranthus retroflexus [18]): Active; Activity [23]: Active; inhibition of growth at 75 g/ha (Amaranthus retroflexus [24]): 45%; inhibition of growth at 750 g/ha (Amaranthus retroflexus [25]): 100%; inhibition of growth at 300 g/ha (Amaranthus retroflexus [26]): 86%
Cc1cccc(Oc2nnc(C)cc2-c2cccc(C(F)(F)F)c2)c1 | 29 | Active | Active | 70 | 43 | 40 | 79 | 43 | 3 | 100 | Active | 55 | 81 | 46 | 51 | 63 | 84 | Active | Active | 34 | Activity (Amaranthus retroflexus [9]): Active; Activity [23]: Active; inhibition of growth at 75 g/ha (Amaranthus retroflexus [24]): 29%; inhibition of growth at 750 g/ha (Amaranthus retroflexus [25]): 0%; inhibition of growth at 300 g/ha (Amaranthus retroflexus [26]): 38%
Cc1cc(-c2cccc(C(F)(F)F)c2)c(Oc2cccc(Br)c2)nn1 | 14 | Active | Active | 91 | 73 | 40 | 70 | 33 | 0 | 100 | Active | 94 | 40 | 42 | 67 | 76 | 79 | Active | Active | 45 | Activity (Amaranthus retroflexus [9]): Active; Activity (Amaranthus retroflexus [18]): Active; Activity [23]: Active; inhibition of growth at 75 g/ha (Amaranthus retroflexus [24]): 38%; inhibition of growth at 750 g/ha (Amaranthus retroflexus [25]): 0%; inhibition of growth at 300 g/ha (Amaranthus retroflexus [26]): 70%
Cc1cc(-c2cccc(C(F)(F)F)c2)c(Oc2ccccc2Cl)nn1 | 0 | Active | Active | 91 | 65 | 24 | 42 | 19 | 9 | 100 | Active | 84 | 27 | 31 | 48 | 67 | 50 | Active | Active | 20 | Activity [23]: Active; inhibition of growth at 75 g/ha (Amaranthus retroflexus [24]): 5%; inhibition of growth at 750 g/ha (Amaranthus retroflexus [25]): 0%; inhibition of growth at 300 g/ha (Amaranthus retroflexus [26]): 39%
Cc1cc(-c2cccc(C(F)(F)F)c2)c(Oc2ccccc2)nn1 | 0 | Active | Active | 75 | 96 | 26 | 68 | 87 | 0 | 99 | Active | 75 | 88 | 38 | 53 | 56 | 75 | Active | Active | 36 | Activity (Amaranthus retroflexus [9]): Active; Activity [23]: Active; inhibition of growth at 75 g/ha (Amaranthus retroflexus [24]): 22%; inhibition of growth at 750 g/ha (Amaranthus retroflexus [25]): 0%; inhibition of growth at 300 g/ha (Amaranthus retroflexus [26]): 64%
Cc1ccc(Oc2nnc(C)cc2-c2cccc(C(F)(F)F)c2)cc1 | 0 | Active | Active | 97 | 76 | 47 | 82 | 44 | 13 | 100 | Active | 84 | 30 | 56 | 67 | 89 | 94 | Active | Active | 47 | Activity (Amaranthus retroflexus [9]): Active; Activity [23]: Active; inhibition of growth at 75 g/ha (Amaranthus retroflexus [24]): 5%; inhibition of growth at 750 g/ha (Amaranthus retroflexus [25]): 0%; inhibition of growth at 300 g/ha (Amaranthus retroflexus [26]): 58%
Cc1cc(-c2cccc(C(F)(F)F)c2)c(Oc2cc(F)cc(F)c2)nn1 | 51 | Active | Active | 82 | 100 | 57 | 80 | 100 | 65 | 80 | Active | 100 | 48 | 55 | 65 | 78 | 84 | Active | Active | 96 | Activity (Amaranthus retroflexus [9]): Active; Activity [23]: Active; inhibition of growth at 75 g/ha (Amaranthus retroflexus [24]): 31%; inhibition of growth at 750 g/ha (Amaranthus retroflexus [25]): 96%; inhibition of growth at 300 g/ha (Amaranthus retroflexus [26]): 98%
Cc1cc(-c2cccc(C(F)(F)F)c2)c(Oc2cccc(C(F)(F)F)c2)nn1 | 0 | Active | Active | 66 | 94 | 38 | 84 | 7 | 0 | 99 | Active | 79 | 62 | 39 | 52 | 58 | 92 | Active | Active | 49 | Activity (Amaranthus retroflexus [9]): Active; Activity [23]: Active; inhibition of growth at 75 g/ha (Amaranthus retroflexus [24]): 19%; inhibition of growth at 750 g/ha (Amaranthus retroflexus [25]): 0%; inhibition of growth at 300 g/ha (Amaranthus retroflexus [26]): 70%
